Experiment [1] concerns Musca domestics. In words: Test Example 4: filter paper with sucrose bait, female housefly imagoes. The class given is in vivo, Musca domestica. The conditions noted are these: 0.7 ml on filter paper with 30 mg sucrose, ten female imagoes, after 24 hours, read-out: rate of dead pests. The method, then: The formulation obtained according to Formulation Example 5 using the present invention compounds (1), (7), (13)-(17), (20), (28), (32), (36), (37), (39), (44)-(46), (53), (55), (57)-(62), (64)-(70) and (71) respectively, was diluted with water so that the active ingredient concentration came to 500 ppm to prepare a pesticidal solution for test.
On the bottom of a polyethylene cup having a diameter of 5.5 cm, a filter paper having the same diameter was laid, and 0.7 ml of the above pesticidal solution for test was added dropwise on the filter paper, followed by putting 30 mg of sucrose on it uniformly as a bait. Ten female Musca domestics imagoes were set free in the polyethylene cup and covered it with a lid. After 24 hours, the number of surviving Musca domestics was examined and the rate of dead pests was calculated.

Experiment [2] relates to Culex pipiens pallens. Description: Test Example 6: last-instar mosquito larvae in treated water. In kind it is in vivo. The conditions noted are these: 24 h, read-out: rate of dead pests. The method, then:
The formulation obtained according to Formulation Example 5 using the present invention compounds (7), (8)-(11), (14)-(16), (20), (21), (24)-(26), (28), (29), (31), (37)-(39), (44)-(47), (51), (53), (55), (57), (58), (60)-(67), (69), (70) and (71) respectively, was diluted with water so that the active ingredient concentration came to 500 ppm to prepare a pesticidal solution for test.
0.7 ml of above pesticidal solution for test was added to 100 ml of ion exchanged water (active ingredient concentration: 3.5 ppm). Twenty last-instar larvae of Culex pipiens pallens were set free in the solution. After one day, the number of surviving Culex pipiens pallens was examined and the rate of dead pests was calculated.

Experiment [3] deals with Blattella germanica. In words: Test Example 5: filter paper with sucrose bait, male German cockroach imagoes. The class given is in vivo. The conditions noted are these: 144 h, 0.7 ml on filter paper with 30 mg sucrose, two male imagoes, after 6 days, read-out: rate of dead pests. The method, then:
The formulation obtained according to Formulation Example 5 using the present invention compounds (1), (25), (28), (36), (39), (40), (44)-(46), (47), (57), (58), (64), (65) and (67) respectively, was diluted with water so that the active ingredient concentration came to 500 ppm to prepare a pesticidal solution for test.
On the bottom of a polyethylene cup having a diameter of 5.5 cm, a filter paper having the same diameter was laid, and 0.7 ml of the above pesticidal solution for test was added dropwise on the filter paper, followed by putting 30 mg of sucrose on it uniformly as a bait. Two male Blattalla germanica imagoes were set free in the polyethylene cup and covered it with a lid. After 6 days, the number of surviving Blattella germanica was examined and the rate of dead pests was calculated.

The test system of experiment [4] is Nilaparvata lugens. Description: Test Example 1: spray on rice plants, Nilaparvata lugens larvae, 2000 ppm. The class given is in vivo. Conditions: sprayed 20 ml/cup on rice plants, thirty first-instar larvae released, sixth day after release, 25° C. The protocol:
The formulation obtained according to Formulation Example 5 using the present invention compound (74) and the reference compound (1) respectively, was diluted with water so that the active ingredient concentration came to 2000 ppm to prepare a pesticidal solution for test. At the same time, 50 grams of molding Bonsoru 2 (available from Sumitomo Chemical Co., Ltd.) was put into a polyethylene cup, and 10 to 15 seeds of rice were planted in the polyethylene cup. The rice plants were grown until the second foliage leaves developed and then cut into the same height of 5 cm. The pesticidal solution for test prepared above was sprayed at the rate of 20 ml/cup to these rice plants. After the pesticidal solution sprayed onto the rice plants were dried, they were put into a plastic cup for escape prevention of test pests, and thirty first-instar larvae of Nilaparvata lugens were set free on the rice plants, followed by covering the plastic cup with a lid. Then the plastic cup was left in a greenhouse (25° C.). On the sixth day after the release of larvae of Nilaparvata lugens, the number of parasitic Nilaparvata lugens on the rice plants was examined.

Where [5] appears, read: 0.7 ml of 500 ppm solution in 100 ml water (active ingredient concentration: 3.5 ppm), twenty last-instar larvae, after one day.

Where two headings read alike, the source gives them in different places.

`CCOC(=O)C(C)C(C#N)(C#N)CCC(F)(F)F` (stereo not shown) [present invention compound (7), 2-[1-(ethoxycarbonyl)ethyl]-2-(3,3,3-trifluoropropyl)malononitrile]: in experiment [1], the pest or weed control at 500 ppm was at least 90%. Moreover, the pest or weed control at 3.5 µg/mL in experiment [2] (setting [5]) is 100%.

In the case of `N#CC(C#N)(CCC(F)(F)F)CC(=O)OC1CCCCC1` [present invention compound (20), 2-(cyclohexyloxycarbonylmethyl)-2-(3,3,3-trifluoropropyl)malononitrile], the pest or weed control at 500 ppm in experiment [1] is at least 90%. Further, the pest or weed control at 3.5 µg/mL in experiment [2] (setting [5]) came out at 100%.

Consider `CC(C)(C)OC(=O)CC(C#N)(C#N)CCC#N` [present invention compound (21), 2-(tert-butoxycarbonylmethyl)-2-(2-cyanoethyl)malononitrile], for which the pest or weed control at 3.5 µg/mL in experiment [2] is 100%.

`CC(CCl)CC(C#N)(C#N)CC(=O)OC(C)(C)C` (stereo not shown) [present invention compound (25), 2-(tert-butoxycarbonylmethyl)-2-(3-chloro-2-methylpropyl)malononitrile]: in experiment [3], the pest or weed control at 500 ppm was 100%.

With `CCCCC(C#N)(C#N)CC(=O)OC(C)(C)C` [present invention compound (28), 2-(tert-butoxycarbonylmethyl)-2-butylmalononitrile], the values for the pest or weed control at 500 ppm in experiment [3] and in experiment [1] were 100% and at least 90%, respectively. Also, the pest or weed control at 3.5 µg/mL in experiment [2] (setting [5]) is 100%.

Consider `CCCCCC(C#N)(C#N)CC(=O)OC(C)(C)C` [present invention compound (29), 2-(tert-butoxycarbonylmethyl)-2-pentylmalononitrile], for which, in experiment [2] (setting [5]), the pest or weed control at 3.5 µg/mL turned out to be 100%.

For the compound `CC(C)CCC(C#N)(C#N)CC(=O)OC(C)(C)C` [present invention compound (31), 2-(tert-butoxycarbonylmethyl)-2-(3-methylbutyl)malononitrile], the pest or weed control at 3.5 µg/mL in experiment [2] (setting [5]) was 100%.

With `CCC(C)C(C#N)(C#N)CC(=O)OC(C)(C)C` (stereo not shown) [present invention compound (32), 2-(tert-butoxycarbonylmethyl)-2-(1-methylpropyl)malononitrile], the pest or weed control at 500 ppm in experiment [1] was at least 90%.

For `CC=CCC(C#N)(C#N)CC(=O)OC(C)(C)C` [present invention compound (36), 2-(tert-butoxycarbonylmethyl)-2-(2-butenyl)malononitrile], the pest or weed control at 500 ppm was 100% in experiment [3] and at least 90% in experiment [1].

Turning to `CCCC(C#N)(C#N)CC(=O)OC(C)(C)C` [present invention compound (37), 2-(tert-butoxycarbonylmethyl)-2-propylmalononitrile], in experiment [1], the pest or weed control at 500 ppm was at least 90%.

As to `CCCCC(C#N)(C#N)C(C)C(=O)OC(C)(C)C` (stereo not shown) [present invention compound (39), 2-[1-(tert-butoxycarbonyl)ethyl]-2-butylmalononitrile], the results for the pest or weed control at 500 ppm in experiment [3] and in experiment [1] were 100% and at least 90%, respectively.

For `CC(C)(C)OC(=O)CC(C#N)(C#N)CCC(F)=C(F)F` [present invention compound (40), 2-(tert-butoxycarbonylmethyl)-2-(3,4,4-trifluoro-3-butenyl)malononitrile], the pest or weed control at 500 ppm in experiment [3] is 100%.

Turning to `CC(C)(C)SC(=O)CC(C#N)(C#N)CCC(F)(F)F` [present invention compound (47), 2-[(tert-butylthio)carbonylmethyl]-2-(3,3,3-trifluoropropyl)malononitrile], the pest or weed control at 500 ppm in experiment [3] stood at 100%.

Take `CC(C)(C)OC(=O)CC(C#N)(C#N)CCCC(F)(F)F` [present invention compound (51), 2-(tert-butoxycarbonylmethyl)-2-(4,4,4-trifluorobutyl)malononitrile]: the pest or weed control at 3.5 µg/mL in experiment [2] (setting [5]) stood at 100%.

Turning to `CC(C)(C)COC(=O)CC(C#N)(C#N)CCC(F)(F)F` [present invention compound (53), 2-[(2,2-dimethylpropoxy)carbonylmethyl]-2-(3,3,3-trifluoropropyl)malononitrile], the pest or weed control at 500 ppm in experiment [1] is at least 90%. For the same compound, the pest or weed control at 3.5 µg/mL in experiment [2] (setting [5]) is 100%.

With `CC(CCl)OC(=O)CC(C#N)(C#N)CCC(F)(F)F` (stereo not shown) [present invention compound (55), 2-[(2-chloro-1-methylethoxy)carbonylmethyl]-2-(3,3,3-trifluoropropyl)malononitrile], the pest or weed control at 500 ppm in experiment [1] is at least 90%. For the same compound, the pest or weed control at 3.5 µg/mL in experiment [2] (setting [5]) came to 100%.

In the case of `C#CC(C)(C)OC(=O)CC(C#N)(C#N)CCC(F)(F)F` [present invention compound (57), 2-[(1,1-dimethyl-2-propynyl)oxycarbonylmethyl]-2-(3,3,3-trifluoropropyl)malononitrile], the pest or weed control at 500 ppm in experiment [3] is 100%. The pest or weed control at 3.5 µg/mL in experiment [2] (setting [5]) was 100%.

For the compound `C#CC(C)(CC)OC(=O)CC(C#N)(C#N)CCC(F)(F)F` (stereo not shown) [present invention compound (58), 2-((1-ethyl-1-methyl-2-propynyloxycarbonyl)methyl)-2-(3,3,3-trifluoropropyl)malononitrile], the pest or weed control at 500 ppm in experiment [3] is 100%. For the same compound, in experiment [2] (setting [5]), the pest or weed control at 3.5 µg/mL was found to be 100%.

Turning to `C#CC(C)(C)OC(=O)C(C)C(C#N)(C#N)CCC(F)(F)F` (stereo not shown) [present invention compound (64), 2-(1-[(1,1-dimethyl-2-propynyl)oxycarbonyl]ethyl)-2-(3,3,3-trifluoropropyl)malononitrile], the pest or weed control at 500 ppm in experiment [3] amounted to 100%.

As for `C#CC(C)(CC)OC(=O)C(C)C(C#N)(C#N)CCC(F)(F)F` (stereo not shown) [present invention compound (65), 2-(1-[(1-ethyl-1-methyl-2-propynyl)oxycarbonyl]ethyl)-2-(3,3,3-trifluoropropyl)malononitrile], the pest or weed control at 500 ppm in experiment [3] was 100%.

Regarding `C=CC(C)(C)OC(=O)C(C)C(C#N)(C#N)CCC(F)(F)F` (stereo not shown) [present invention compound (67), 2-(1-[(1,1-dimethyl-2-propenyl)oxycarbonyl]ethyl)-2-(3,3,3-trifluoropropyl)malononitrile], the pest or weed control at 500 ppm in experiment [3] turned out to be 100%.

As to `CC(C)CC(C)OC(=O)C(C)C(C#N)(C#N)CCC(F)(F)F` (stereo not shown) [present invention compound (69), 2-(1-[(1,3-dimethylbutoxy)carbonyl]ethyl)-2-(3,3,3-trifluoropropyl)malononitrile], in experiment [2] (setting [5]), the pest or weed control at 3.5 µg/mL is 100%.

In the case of `CC(C(=O)OCC(C)(C)C)C(C#N)(C#N)CCC(F)(F)F` (stereo not shown) [present invention compound (70), 2-(1-[(2,2dimethylpropoxy)carbonyl]ethyl)-2-(3,3,3-trifluoropropyl)malononitrile], in experiment [2] (setting [5]), the pest or weed control at 3.5 µg/mL came out at 100%.

As for `COC(=O)C(C)C(C#N)(C#N)CCC(F)(F)F` (stereo not shown) [present invention compound (71), 2-[1-(methoxycarbonyl)ethyl]-2-(3,3,3-trifluoropropyl)malononitrile], the pest or weed control at 500 ppm in experiment [1] is at least 90%. Besides, in experiment [2] (setting [5]), the pest or weed control at 3.5 µg/mL is 100%.

For `CCOC(=O)CC(C)(C#N)C#N` [present invention compound (74), 2-(ethoxycarbonylmethyl)-2-methylmalononitrile], the “number of parasitic Nilaparvata lugens” value in experiment [4] is given as at most 3.

With `CCOC(=O)CCC(C#N)C#N` [reference compound (1), 2-[2-(ethoxycarbonyl)ethyl]malononitrile, reference compound], in experiment [4], the “number of parasitic Nilaparvata lugens” value is recorded as at least 20.

The values are drawn from patent US7439266B2, “Malononitrile compound and use thereof” (Sumitomo Chemical Company, Limited, priority 2002, dated 2008).
